Experiments:
Conditions in all cases: exposure time: 72 h
[1] = tested on: E13 (patient-derived glioblastoma stem cells of classical subtype); assay: surviving fraction (nuclei count normalised to DMSO); higher = more cells surviving (less toxic)
[2] = tested on: E21 (patient-derived glioblastoma stem cells of mesenchymal subtype); assay: as above
[3] = tested on: E28 (patient-derived glioblastoma stem cells of classical subtype); assay: as above
[4] = tested on: E34 (patient-derived glioblastoma stem cells of proneural subtype); assay: as above
[5] = tested on: E57 (patient-derived glioblastoma stem cells of mesenchymal subtype); assay: as above
[6] = tested on: FT3469 (normal neural stem cell line); assay: as above
[7] = tested on: E13; assay: phenotypic distance (Euclidean, principal components) from DMSO controls (arbitrary units); higher = stronger morphological change
[8] = tested on: E21; assay: as above
[9] = tested on: E28; assay: as above
[10] = tested on: E34; assay: as above
[11] = tested on: E57; assay: as above
[12] = tested on: FT3469; assay: as above
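Wherever phenotypic distance (Euclidean, principal components) from DMSO controls is given: cell Painting imaging in 384-well plates, CellProfiler features reduced to at least 20 principal components, Euclidean distance versus same-plate DMSO vehicle wells (0.1% v/v), median over six images per well.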
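Wherever surviving fraction (nuclei count normalised to DMSO) is given: nuclei counted by high-content imaging of Hoechst-stained cells in laminin-coated 384-well plates, relative to 0.1% DMSO vehicle wells, with staurosporine as cell-death control.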

Cc1cc(C)c(CN2CCc3c(Cl)cc(-c4c(C)noc4C)c(Cl)c3C2=O)c(=O)[nH]1
Conditions	phenotypic distance	surviving fraction
[1], 4.1 nM	–	1.06
[1], 4.11523 nM	–	0.856
[1], 12.3 nM	–	1.14
[1], 12.34567901 nM	–	0.965
[1], 37 nM	–	0.832
[1], 37.037 nM	–	1
[1], 111.1 nM	–	1.12
[1], 111.1111111 nM	–	1.02
[1], 333.3 nM	–	0.891
[1], 333.333 nM	–	1.06
[1], 1000 nM	–	1.01
[1], 3000 nM	–	0.89
[2], 4.1 nM	–	0.906
[2], 4.11523 nM	–	0.889
[2], 12.3 nM	–	1.06
[2], 12.34567901 nM	–	0.956
[2], 37 nM	–	0.952
[2], 37.037 nM	–	0.858
[2], 111.1 nM	–	1.03
[2], 111.1111111 nM	–	1.03
[2], 333.3 nM	–	0.966
[2], 333.333 nM	–	0.985
[2], 1000 nM	–	0.973
[2], 3000 nM	–	0.984
[3], 4.1 nM	–	0.912
[3], 4.11523 nM	–	1.06
[3], 12.3 nM	–	1.07
[3], 12.34567901 nM	–	0.996
[3], 37 nM	–	0.901
[3], 37.037 nM	–	1.05
[3], 111.1 nM	–	0.947
[3], 111.1111111 nM	–	0.947
[3], 333.3 nM	–	0.95
[3], 333.333 nM	–	1.17
[3], 1000 nM	–	0.98
[3], 3000 nM	–	0.991
[4], 4.1 nM	–	0.921
[4], 4.11523 nM	–	0.993
[4], 12.3 nM	–	1.13
[4], 12.34567901 nM	–	0.993
[4], 37 nM	–	0.811
[4], 37.037 nM	–	0.929
[4], 111.1 nM	–	1.11
[4], 111.1111111 nM	–	0.938
[4], 333.3 nM	–	0.85
[4], 333.333 nM	–	1.01
[4], 1000 nM	–	0.861
[4], 3000 nM	–	0.96
[5], 4.1 nM	–	0.932
[5], 4.11523 nM	–	0.986
[5], 12.3 nM	–	0.955
[5], 12.34567901 nM	–	0.938
[5], 37 nM	–	1.02
[5], 37.037 nM	–	1.04
[5], 111.1 nM	–	0.932
[5], 111.1111111 nM	–	1.01
[5], 333.3 nM	–	1
[5], 333.333 nM	–	1.01
[5], 1000 nM	–	1.02
[5], 3000 nM	–	1.06
[6], 4.1 nM	–	0.866
[6], 4.11523 nM	–	0.918
[6], 12.3 nM	–	0.934
[6], 12.34567901 nM	–	0.961
[6], 37 nM	–	0.862
[6], 37.037 nM	–	0.857
[6], 111.1 nM	–	0.892
[6], 111.1111111 nM	–	1.05
[6], 333.3 nM	–	0.977
[6], 333.333 nM	–	0.9
[6], 1000 nM	–	0.914
[6], 3000 nM	–	0.971
[7], 4.1 nM	0.55	–
[7], 4.11523 nM	0.762	–
[7], 12.3 nM	0.528	–
[7], 12.34567901 nM	0.464	–
[7], 37 nM	0.636	–
[7], 37.037 nM	0.555	–
[7], 111.1 nM	0.599	–
[7], 111.1111111 nM	0.586	–
[7], 333.3 nM	0.546	–
[7], 333.333 nM	2.27	–
[7], 1000 nM	0.5296	–
[7], 3000 nM	1.67	–
[8], 4.1 nM	0.846	–
[8], 4.11523 nM	0.624	–
[8], 12.3 nM	0.502	–
[8], 12.34567901 nM	0.663	–
[8], 37 nM	0.782	–
[8], 37.037 nM	0.448	–
[8], 111.1 nM	0.333	–
[8], 111.1111111 nM	2.67	–
[8], 333.3 nM	1.29	–
[8], 333.333 nM	0.358	–
[8], 1000 nM	0.536	–
[8], 3000 nM	0.603	–
[9], 4.1 nM	0.563	–
[9], 4.11523 nM	0.484	–
[9], 12.3 nM	0.447	–
[9], 12.34567901 nM	0.539	–
[9], 37 nM	0.798	–
[9], 37.037 nM	0.532	–
[9], 111.1 nM	0.371	–
[9], 111.1111111 nM	2.05	–
[9], 333.3 nM	0.616	–
[9], 333.333 nM	0.607	–
[9], 1000 nM	0.701	–
[9], 3000 nM	0.617	–
[10], 4.1 nM	0.88	–
[10], 4.11523 nM	0.409	–
[10], 12.3 nM	0.682	–
[10], 12.34567901 nM	0.739	–
[10], 37 nM	1.1	–
[10], 37.037 nM	0.359	–
[10], 111.1 nM	0.667	–
[10], 111.1111111 nM	0.478	–
[10], 333.3 nM	1.23	–
[10], 333.333 nM	0.552	–
[10], 1000 nM	0.66	–
[10], 3000 nM	1.1	–
[11], 4.1 nM	0.289	–
[11], 4.11523 nM	0.517	–
[11], 12.3 nM	0.432	–
[11], 12.34567901 nM	0.412	–
[11], 37 nM	0.351	–
[11], 37.037 nM	0.334	–
[11], 111.1 nM	0.307	–
[11], 111.1111111 nM	0.418	–
[11], 333.3 nM	0.28	–
[11], 333.333 nM	0.343	–
[11], 1000 nM	0.373	–
[11], 3000 nM	0.511	–
[12], 4.1 nM	0.799	–
[12], 4.11523 nM	0.574	–
[12], 12.3 nM	0.456	–
[12], 12.34567901 nM	0.531	–
[12], 37 nM	3.66	–
[12], 37.037 nM	0.66	–
[12], 111.1 nM	0.618	–
[12], 111.1111111 nM	0.467	–
[12], 333.3 nM	0.925	–
[12], 333.333 nM	1.74	–
[12], 1000 nM	0.694	–
[12], 3000 nM	0.451	–
